Assay results taken from patent publication US8937084B2, “Nitrogen containing morphinan derivatives and the use thereof” (Purdue Pharma L.P., priority 2012, dated 2015).

What was measured:
Type in all cases: biochemical
μ-opioid receptor [1] = biological target: T1, μ-opioid receptor (Homo sapiens (Human), UniProt P35372); assay: μ-opioid receptor [35S]GTPγS functional assay, HEK-293 or CHO cells; details: for EC50: GTPγS; for Emax: relative to DAMGO
Experimental: (§1) μ-Opioid Receptor Functional Assay Procedures: [^35S]GTPγS functional assays were conducted using freshly thawed μ-receptor membranes prepared in-house from a cell line expressing recombinant μ opioid receptor in a HEK-293, CHO or U-2 OS cell background, or purchased from a commercial source (Perkin Elmer, Shelton, Conn.; or DiscovRx, Fremont, Calif.). Assay reactions were prepared by sequentially adding the following reagents to binding buffer (100 mM NaCl, 10 mM MgCl2, 20 mM HEPES, pH 7.4) on ice (final concentrations indicated): membrane protein (0.026 mg/mL), saponin ([…]), GDP ([…]) and [^35S]GTPγS (0.20 nM; Perkin Elmer, Shelton, Conn.). The prepared membrane solution (190 μl/well) was transferred to 96-shallow well polypropylene plates containing 10 μl of 20× concentrated stock solutions of the agonist [D-Ala^2, N-methyl-Phe^4 Gly-ol^5]-enkephalin (DAMGO) prepared in dimethyl sulfoxide (DMSO). Plates were incubated for 30 min at about 25° C. with shaking. Reactions were terminated by rapid filtration onto 96-well Unifilter GF/B filter plates (Perkin Elmer, Shelton, Conn.) using a 96-well tissue harvester (Perkin Elmer, Shelton, Conn.) followed by three filtration washes with 200 μl of ice-cold wash buffer (10 mM NaH2PO4, 10 mM Na2HPO4, pH 7.4). Filter plates were subsequently dried at 50° C. for 2-3 hours. BetaScint scintillation cocktail (Perkin Elmer, Shelton, Conn.) was added (50 μl/well) and plates were counted using a Packard Top-Count for 1 min/well. Data were analyzed using the sigmoidal dose-response curve fitting functions in GraphPad PRISM v. 3.0, or an in-house function for non-linear, sigmoidal dose-response curve-fitting.
(§2) μ-Opioid Receptor Functional Data: μ GTP EC50 is the concentration of a compound providing 50% of the maximal response for the compound at a μ-opioid receptor.
(§3) μ GTP Emax (%) is the maximal effect elicited by a compound relative to the effect elicited by DAMGO, a standard μ agonist. Generally, the μ GTP Emax (%) value measures the efficacy of a compound to treat or prevent pain or other Conditions.
(§4) In TABLE 2, activity response of certain Compounds of the Invention to the μ-, δ- and κ-opioid receptors was determined as described above for functional assays using HEK-293 or CHO cells.

κ opioid receptor [2] = biological target: T2, κ opioid receptor (Homo sapiens (Human), UniProt P41145); assay: κ-opioid receptor [35S]GTPγS functional assay, HEK-293 or CHO cells; details: for EC50: GTPγS; for Emax: relative to U69,593
Experimental: (§5) κ-Opioid Receptor Functional Assay Procedures: Functional [^35S]GTPγS binding assays were conducted as follows. κ opioid receptor membrane solution was prepared by sequentially adding final concentrations of 0.026 μg/μl κ membrane protein (in-house), 10 μg/mL saponin, 3 μM GDP and 0.20 nM [^35S]GTPγS to binding buffer (100 mM NaCl, 10 mM MgCl2, 20 mM HEPES, pH 7.4) on ice. The prepared membrane solution (190 μl/well) was transferred to 96-shallow well polypropylene plates containing 10 μl of 20× concentrated stock solutions of agonist prepared in DMSO. Plates were incubated for 30 min at a temperature of about 25° C. with shaking. Reactions were terminated by rapid filtration onto 96-well Unifilter GF/B filter plates (Perkin Elmer, Shelton, Conn.) using a 96-well tissue harvester (Packard) and followed by three filtration washes with 200 μl ice-cold binding buffer (10 mM NaH2PO4, 10 mM Na2HPO4, pH 7.4). Filter plates were subsequently dried at 50° C. for 2-3 hours. Fifty μl/well scintillation cocktail (Perkin Elmer, Shelton, Conn.) was added and plates were counted in a Packard Top-Count for 1 min/well.
(§6) κ-Oploid Receptor Functional Data: κ GTP EC50 is the concentration of a compound providing 50% of the maximal response for the compound at a K receptor.
(§7) κ GTP Emax (%) is the maximal effect elicited by a compound relative to the effect elicited by U69,593.
as §4

μ-opioid receptor [3] = biological target: T1, μ-opioid receptor; assay: μ-opioid receptor [35S]GTPγS functional assay, U-2 OS cells; details: for EC50: GTPγS; for Emax: relative to DAMGO
Experimental: as §1, §2, §3
(§8) The following TABLE 3 provides results on the activity response of certain Compounds of the Invention at the μ- and κ-opioid receptors determined as described above using U-2 OS cells.

κ opioid receptor [4] = biological target: T2, κ opioid receptor; assay: κ-opioid receptor [35S]GTPγS functional assay, U-2 OS cells; details: for EC50: GTPγS; for Emax: relative to U69,593
Experimental: as §5, §6, §7, §8

| SMILES | EC50 (μ-opioid receptor [1]) [nM] | Emax (μ-opioid receptor [1]) [%] | EC50 (κ opioid receptor [2]) [nM] | Emax (κ opioid receptor [2]) [%] | EC50 (μ-opioid receptor [3]) [nM] | Emax (μ-opioid receptor [3]) [%] | EC50 (κ opioid receptor [4]) [nM] | Emax (κ opioid receptor [4]) [%] |
| --- | --- | --- | --- | --- | --- | --- | --- | --- |
| O=C1C[C@]23CCN(CC4CC4)[C@H](Cc4ccc(O)cc42)[C@@H]3CN1 [Compound 7, (4aS,5R,10bS)-13-(cyclopropylmethyl)-9-hydroxy-4,4-a,5,6-tetrahydro-1H-5,10b-(epiminoethano)benzo[f]isoquinolin-2(3H)-one] | 13.1 ± 3.75 | 28.7 | 5.1 ± 1.62 | 74.7 | 3.43 ± 0.43 | 40.7 ± 3.18 | 0.21 ± 0.014 | 106 ± 1.53 |
| Oc1ccc2c(c1)[C@@]13CCNC[C@H]1[C@@H](C2)N(CC1CC1)CC3 [Compound 13, (4aS,5R,10bR)-13-(cyclopropylmethyl)-2,3,4,4a,5,6-hexahydro-1H-5,10b-(epiminoethano)benzo[f]isoquinolin-9-ol] | 29.4 ± 7.66 | 61 | 29.5 ± 14.8 | 78.3 | – | – | – | – |
| NC(=O)CN1C[C@H]2[C@H]3Cc4ccc(O)cc4[C@@]2(CCN3CC2CC2)CC1=O [Compound 4, 2-((4aS,5R,10bS)— 13-(cyclopropylmethyl)-9-hydroxy-2-oxo-4,4-a,5,6-tetrahydro-1H-5,10b-(epiminoethano)benzo[f]isoquinolin-3(2H)-yl)acetamide] | 9.11 ± 1.22 | 24 | 80.8 ± 5.95 | 62 | 7.05 ± 0.17 | 39 ± 3.51 | 1.65 ± 0.054 | 104 ± 2.6 |
| O=C1C[C@]23CCN(CC4CC4)[C@H](Cc4ccc(O)cc42)[C@@H]3CN1Cc1ccc(O)cc1 [Compound 5, (4aS,5R,10bS)-13-(cyclopropylmethyl)-9-hydroxy-3-(4-hydroxybenzyl)-4,4-a,5,6-tetrahydro-1H-5,10b-(epiminoethano)benzo[f]isoquinolin-2(3H)-one] | 45.9 ± 14 | 30 | 102 ± 19.9 | 42 | – | – | – | – |
| O=C(O)CN1C[C@H]2[C@H]3Cc4ccc(O)cc4[C@@]2(CCN3CC2CC2)CC1=O [Compound 8, 2-((4aS,5R,10bS)-13-(cyclopropylmethyl)-9-hydroxy-2-oxo-4,4-a,5,6-tetrahydro-1H-5,10b-(epiminoethano)benzo[f]isoquinolin-3(2H)-yl)acetic acid] | 6.06 ± 2.1 | 12.3 | 14.9 ± 2.71 | 66 | – | – | – | – |
